According to patent US20190284168A1, “PYRAZOLE DERIVATIES AS SGC STIMULATORS” (IRONWOOD PHARMACEUTICALS, INC., priority 2014, published 2019):

Assays:
[1] = target: T1, soluble guanylate cyclase (sGC) (Homo sapiens, UniProt Q02108+Q02153); assay: sGC-HEK-cGMP assay with LC/MS detection; type: cell-based; conditions: HEK293 whole cells, LC/MS detection of cGMP, 10 μM DETA-NONOate; 50% of high control response (30 μM Compound Y); read-out: Absolute EC50 (nM)- binned (~)
T1 construct: endogenously expressing soluble guanylate cyclase (sGC); endogenous in cells; host or cells: HEK293
T1 sequence (Q02153 1-619): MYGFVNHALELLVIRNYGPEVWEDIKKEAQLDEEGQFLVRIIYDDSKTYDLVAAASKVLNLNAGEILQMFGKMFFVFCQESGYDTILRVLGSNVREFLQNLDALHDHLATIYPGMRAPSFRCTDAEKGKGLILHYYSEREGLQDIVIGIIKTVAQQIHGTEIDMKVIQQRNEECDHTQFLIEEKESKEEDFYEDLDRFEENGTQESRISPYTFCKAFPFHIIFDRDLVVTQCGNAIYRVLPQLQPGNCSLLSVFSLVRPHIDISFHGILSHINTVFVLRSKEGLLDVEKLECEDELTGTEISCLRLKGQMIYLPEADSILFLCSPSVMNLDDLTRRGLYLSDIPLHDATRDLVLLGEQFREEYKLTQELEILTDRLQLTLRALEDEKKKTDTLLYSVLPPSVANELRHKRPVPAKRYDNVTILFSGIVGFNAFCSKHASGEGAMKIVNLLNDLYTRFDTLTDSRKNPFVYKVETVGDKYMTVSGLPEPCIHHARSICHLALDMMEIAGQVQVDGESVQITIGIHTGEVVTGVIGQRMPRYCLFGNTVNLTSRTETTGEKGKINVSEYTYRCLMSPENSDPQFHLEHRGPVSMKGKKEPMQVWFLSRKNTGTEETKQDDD
T1 sequence (Q02108 1-690): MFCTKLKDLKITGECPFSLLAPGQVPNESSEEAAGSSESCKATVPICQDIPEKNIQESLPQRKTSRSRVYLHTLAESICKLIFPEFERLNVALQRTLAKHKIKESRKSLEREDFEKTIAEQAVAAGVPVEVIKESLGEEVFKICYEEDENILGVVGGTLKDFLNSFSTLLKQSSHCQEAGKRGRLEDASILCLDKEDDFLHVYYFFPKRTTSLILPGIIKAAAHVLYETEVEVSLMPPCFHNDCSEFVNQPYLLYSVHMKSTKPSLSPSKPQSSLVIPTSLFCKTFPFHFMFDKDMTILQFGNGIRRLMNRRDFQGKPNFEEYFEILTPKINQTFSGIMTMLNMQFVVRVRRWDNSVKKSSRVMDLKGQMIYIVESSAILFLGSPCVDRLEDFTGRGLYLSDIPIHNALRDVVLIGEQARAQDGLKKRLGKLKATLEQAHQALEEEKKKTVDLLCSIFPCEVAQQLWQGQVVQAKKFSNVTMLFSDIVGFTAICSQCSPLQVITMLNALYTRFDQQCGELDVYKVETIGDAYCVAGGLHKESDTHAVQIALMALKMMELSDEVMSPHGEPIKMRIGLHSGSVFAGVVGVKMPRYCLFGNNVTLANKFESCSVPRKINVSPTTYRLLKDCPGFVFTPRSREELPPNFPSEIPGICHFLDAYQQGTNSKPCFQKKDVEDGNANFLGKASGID

[2] = target: T2, human recombinant soluble guanylate cyclase enzyme α1β1 (Homo sapiens, UniProt Q02108+Q02153); assay: Purified human recombinant sGC α1β1 enzyme assay in the presence of DETA-NONOate (cGMP HTRF); type: biochemical; conditions: 30 uM DETA NONOate; 50% of maximal response of 30 uM Compound Y; read-out: sGC_Enz_HTRF_a1b1 EC50/IC50 Abs (Norm) (nM) Binned
T2 construct: purchased Enzo Life Sciences ALX-201-177
T2 sequence (Q02108 1-690): T1 sequence (Q02108 1-690)
T2 sequence (Q02153 1-619): T1 sequence (Q02153 1-619)
Procedure: Purified human recombinant soluble guanylate cyclase enzyme α1β1 (h sGC) obtained from Enzo Life Sciences (P/N: ALX-201-177) was used to evaluate the activity of test compounds. The assay reactions contained 0.1 M Tris (pH 8.0), 0.5 mg/mL BSA, 2 mM DTT, 4 mM MgCl2, 30 uM DETA NONOate (Enzo Life Science P/N: ALX-430-014), and 12.5 ng/ml human soluble guanylate cyclase enzyme. […] Guanosine 5'-triphosphate (Sigma-Aldrich P/N: […]) was added to a final concentration of 300 μM and enzyme reactions were incubated (100 μL, 384-well plate format) at 37° C. for 20 minutes. The controls contained 3% DMSO (low control), or 30 uM of Compound Y (high control). After the 20 minute incubation, the reaction was stopped with the addition of 100 μL of ice cold 20% acetic acid. cGMP concentrations in all samples were determined using the cGMP HTRF (Cisbio P/N: 62GM2PEC) assay per manufacturer's instructions. A cGMP standard curve was fit using a 4-parameter fit (log(inhibitor) vs. response-variable slope) using GraphPad Prism Software v.6. Samples were diluted appropriately to ensure that values fell within the linear range of the standard curve. Data were fit using a 4-parameter fit (log(agonist) vs. response-variable slope) using GraphPad Prism Software v.6. The EC50 was interpolated from the curve fit and is defined as the concentration at which the compound elicits 50% of the maximal response of the 30 uM of Compound Y, the high control compound.

[3] = tested on: lambs with acute pulmonary hypertension; conditions: cited from earlier work; for effect on mean arterial pressure / pulmonary vasodilation / transpulmonary cGMP release / systemic arterial oxygenation: inhaled microparticles, awake lambs; for effect on mean arterial pressure / pulmonary vasodilation / transpulmonary cGMP release: U-46619 infusion
sGC enzyme = target: T3, sGC enzyme (Homo sapiens, UniProt Q02108+Q02153); assay: cGMP GloSensor cell-based assay, 384-well format; conditions: read-out: sGC_HEK_GloSensor EC50/IC50 Abs (Norm) (nM) Binned (~)
T3 construct: host or cells: HEK293 cells expressing GloSensor 40F cGMP
T3 sequence (Q02153 1-619): T1 sequence (Q02153 1-619)
T3 sequence (Q02108 1-690): T1 sequence (Q02108 1-690)
From the text: Human embryonic kidney cells (HEK293) cells expressing GloSensor™ 40F cGMP (Part No: CS182801, Promega) were used to evaluate the activity of test compounds. The luminescent biosensors (engineered luciferase) that were incorporated into these cells detect cGMP formed by the compounds stimulating the sGC enzyme and emit luminescence.
cGMP GloSensor cells were maintained in Dulbecco's Modification of Eagle's Medium (DMEM) supplemented with fetal bovine serum (FBS) (10% final) and hygromycine (200 ug/ml). The day before assay, cells were plated in DMEM with 10% FBS in a 50 μL volume at a density of 1.5×10^4 cells/well in a poly-D-lysine coated 384-well flat white-bottom plate (Corning Cat No 35661). Cells were incubated overnight at 37° C. in a humidified chamber with 5% CO2. The next day, medium was removed and cells were replaced with 40 ul/well of GloSensor™, 2 mM (Promega Cat No E1291). Cells were treated for 90 minutes at 25° C. to allow the substrate to equilibrate in the cells. Test compounds and Diethylenetriamine NONOate (DETA-NONOate) was diluted to 3 mM (20×) in serum-free CO2 independent medium and serially diluted at 4× dilutions to create 5× dose curve from which 10 ul was added to the wells (x μM concentration for test compound solution and 10 μM concentration for DETA-NONOate solution; wherein x is one of the following final concentrations). • 30000 nM • 7500 nM • 1875 nM • 468.75 nM • 117.19 nM • 29.29 nM • 7.32 nM • 1.83 nM • 0.46 nM • 0.114 nM • 0.029 nM
For the kinetics studies, luminescense was measured right away for 0.2 sec per well with Envision (Perkin Elmer model No). For endpoint SAR screening, data were collected after 55 min incubation at room temperature.
Data analysis was carried out as indicated above in Example 2A.

EC50 [1] [nM] | EC50 [2] [nM] | SMILES | also measured
> 1000 | ≤ 1000 | O=C(Cc1c[nH]nc1O)Nc1ccnc(-c2cc(-c3ccon3)n(Cc3ccccc3F)n2)n1 [Compound 45] | 
> 1000 | ≤ 1000 | O=C(Nc1ccnc(-c2cc(-c3ccon3)n(Cc3ccccc3F)n2)n1)c1cc(O)no1 [Compound 27] | 
> 1000 | ≤ 1000 | CC(=O)c1cc(-c2ncc(F)c(NCC(=O)O)n2)nn1Cc1ccccc1F [Compound 86] | 
 |  | O=C(O)CCCCN(CCc1ccccc1OCc1ccc(CCc2ccccc2)cc1)Cc1ccc(C(=O)O)cc1 [BAY 58-2667] | pulmonary vasodilation and transpulmonary cGMP release after treatment with ODQ ([3]; inhaled microparticles after ODQ): greatly enhanced; effect on mean arterial pressure [3]: without significant effect; pulmonary vasodilation [3]: dose dependent pulmonary vasodilation; transpulmonary cGMP release [3]: increased; systemic arterial oxygenation [3]: increased
> 1000 | ≤ 1000 | Cn1c(=O)c(CC(N)=O)cn1-c1nc(-c2cc(-c3ccon3)n(Cc3ccccc3F)n2)ncc1F [Compound 56] | 
> 1000 | ≤ 1000 | CC(=O)c1cc(-c2ncc(F)c(O)n2)nn1Cc1cccc(F)c1F [Compound 83] | 
> 1000 | ≤ 1000 | NC(=O)C(=O)Nc1ccnc(-c2cc(-c3ccon3)n(Cc3ccccc3F)n2)n1 [Compound 4] | 
> 30000 | ≤ 1000 | Fc1ccccc1Cn1nc(-c2ncc(N3CCOCC3)cn2)cc1-c1ccon1 [Compound 37] | 
> 1000 | ≤ 1000 | CC(=O)c1cc(-c2ncc(F)c(N3CCS(=O)(=O)CC3)n2)nn1Cc1ccccc1F [Compound 78] | 
100 to 1000 | ≤ 1000 | O=C(O)Cc1cn(-c2nc(-c3cc(-c4ccon4)n(Cc4ccccc4F)n3)ncc2F)[nH]c1=O [Compound 38] | 
 |  | O=c1onc2cnc3ccccc3n12 [ODQ, 1H-[1,2,4]oxadiazolo[4,3-a]quinoxalin-1-one] | pulmonary vasodilator effect of iNO ([3]; intravenous administration): markedly reduced
> 1000 | ≤ 1000 | O=C(O)C1Cn2c(nnc2C(F)(F)F)CN1c1nc(-c2cc(-c3ccon3)n(Cc3ccccc3F)n2)ncc1F (centres unmarked) [Compound 62] | 
> 1000 | ≤ 1000 | O=C(O)Cc1c[nH]n(-c2nc(-c3cc(-c4ccon4)n(Cc4ccccc4F)n3)ncc2F)c1=O [Compound 39] | 
 |  | Nc1nc(-c2nn(Cc3ccccc3F)c3ncccc23)nc(N)c1N1CCOCC1 [BAY 41-8543] | magnitude and duration of pulmonary vasodilation induced by iNO ([3]; after inhaling microparticles, combined with iNO): augmented; effect on mean arterial pressure [3]: without significant effect; pulmonary vasodilation [3]: dose dependent pulmonary vasodilation; transpulmonary cGMP release [3]: increased; systemic arterial oxygenation [3]: increased
< 100 | 100 to 1000 | Oc1nnc2n1CCN(c1nc(-c3cc(-c4ccon4)n(Cc4ccccc4F)n3)ncc1F)C2 [Compound 44] | 
100 to 1000 | 100 to 1000 | O=C(CCl)NCC(=O)Nc1ccnc(-c2cc(-c3ccon3)n(Cc3ccccc3F)n2)n1 [Compound 32] | 
 |  | Nc1nc(-c2nn(Cc3ccccc3F)c3ncccc23)ncc1C1CC1 [BAY 41-2272] | effect on mean arterial pressure [3]: without significant effect; pulmonary vasodilation [3]: dose dependent pulmonary vasodilation; transpulmonary cGMP release [3]: increased
> 1000 | ≤ 1000 | Fc1ccccc1Cn1nc(-c2ncc(F)c(Nc3nnc(C(F)(F)F)s3)n2)cc1-c1ccon1 [Compound 11] | 
> 1000 | ≤ 1000 | CS(=O)(=O)C1(C(=O)Nc2ccnc(-c3cc(-c4ccon4)n(Cc4ccccc4F)n3)n2)CC1 [Compound 50] | 
> 30000 | ≤ 1000 | O=S1(=O)Cc2cnc(-c3cc(-c4ccon4)n(Cc4ccccc4F)n3)nc2C1 [Compound 3] | 
> 30000 | ≤ 1000 | NC(=O)CC(=O)Nc1ccnc(-c2cc(-c3ccon3)n(Cc3ccccc3F)n2)n1 [Compound 17] | 
100 to 1000 | 100 to 1000 | C[C@](N)(CNc1nc(-c2cc(-c3ccon3)n(Cc3ccccc3F)n2)ncc1F)C(F)(F)F [Compound 108] | 
 |  | O[C@@H]1CN(c2nc(-c3cc(-c4ccon4)n(Cc4ccccc4F)n3)ncc2F)C[C@H]1O (racemic) [Compound 167, trans-1-(5-fluoro-2-(1-(2-fluorobenzyl)-5-(isoxazol-3-yl)-1H-pyrazol-3-yl)pyrimidin-4-yl)pyrrolidine-3,4-diol] | EC50 (sGC enzyme): < 100 nM
 |  | Fc1cnc(-c2cc(-c3ccon3)n(Cc3ncccc3F)n2)nc1 [Compound 144] | EC50 (sGC enzyme): > 1000 nM
 |  | OCCCCNc1nc(-c2cc(-c3ccon3)n(Cc3ccccc3F)n2)ncc1F [Compound 176, 4-((5-fluoro-2-(1-(2-fluorobenzyl)-5-(isoxazol-3-yl)-1H-pyrazol-3-yl)pyrimidin-4-yl)amino)butan-1-ol] | EC50 (sGC enzyme): < 100 nM
 |  | OC(CNc1nc(-c2cc(-c3ncco3)n(Cc3ccccc3F)n2)ncc1F)(C(F)(F)F)C(F)(F)F [Compound 141] | EC50 (sGC enzyme): 100 to 1000 nM
 |  | CCOC(=O)C(C)(C)c1nnc(-c2cc(-c3ccon3)n(Cc3ccccc3F)n2)nc1N [Compound 209] | EC50 (sGC enzyme): > 1000 nM
 |  | Cc1ccc(Cn2nc(-c3ncc(F)c(O)n3)cc2-c2ccon2)c(F)c1 [Compound 208] | EC50 (sGC enzyme): 100 to 1000 nM
